Measurements from US10378059B2, “Methods and molecular pharmacodynamic biomarkers for multiple signaling pathways in response to carboxyamidotriazole orotate” (TACTICAL THERAPEUTICS, INC., priority 2013, dated 2019).
Entries after “also recorded” stand apart in the source; their conditions may differ.

Assays:
PI3K pathway = assay: Plucked hair assay, PI3K Signature Score; assay type: cell-based, human; settings: CTO 8 hr and 24 hr; BEZ235 1 μM 24 hr
Experimental: (§1) Donor hairs were plucked from 5 male donor volunteers, immediately transferred to maintenance medium cultures and exposed to varying doses of CTO equivalent to […], 5 μM, and 10 μM carboxyamidotriazole (CAI). The cultures were either maintained for 8 hrs or 24 hrs. Controls were used, for example, Tarceva®. (EGFR inhibitor) at 1 μM and BEZ235 (PI3K inhibitor) at 1 μM for 24 hrs only. Once in culture hairs were collected at the specified periods for mRNA isolation or protein analysis to ensure quality control. Small amounts of RNA (about up to 500 ng) are extracted from the bulbs at the end of the anagen hairs. Representative cDNA was prepared from the RNA and gene expression levels determined by microarray analysis. Biotin labeling, fragmentation and hybridization to 048 Affymetrix U133 plus 2.0 array was done. […]

[1] = tested on: early growth response 1 gene product (EGR1); assay: Plucked hair assay, EGR1 expression; assay type: cell-based, human; settings: for EGR1 regulation: BEZ235 and Tarceva 1 μM, 24 hr
Experimental: Donor hairs were plucked from 5 male donor volunteers, immediately transferred to maintenance medium cultures and exposed to varying doses of CTO equivalent to 2 M, 5 μM, and 10 μM carboxyamidotriazole (CAI). The cultures were either maintained for 8 hrs or 24 hrs. Controls were used, for example, Tarceva®. (EGFR inhibitor) at 1 μM and BEZ235 (PI3K inhibitor) at 1 μM for 24 hrs only. Once in culture hairs were collected at the specified periods for mRNA isolation or protein analysis to ensure quality control. Small amounts of RNA (about up to 500 ng) are extracted from the bulbs at the end of the anagen hairs. Representative cDNA was prepared from the RNA and gene expression levels determined by microarray analysis. Biotin labeling, fragmentation and hybridization to 048 Affymetrix U133 plus 2.0 array was done. Bioinformatic analysis was done to identify CTO induced gene expression changes.

PI3K/mTOR pathway = assay: Plucked hair assay, PI3K/mTOR Signature Score; assay type: cell-based, human; settings: CTO 8 hr and 24 hr; BEZ235 1 μM 24 hr
Experimental: as §1

[2] = tested on: carcinoembryonic antigen-related cell adhesion molecule (CEACAM1); assay: Plucked hair assay, CEACAM1 expression; assay type: cell-based, human
Experimental: (§2) Donor hairs were plucked from 5 male donor volunteers, immediately transferred to maintenance medium cultures and exposed to varying doses of CTO equivalent to […], 5 μM, and 10 μM carboxyamidotriazole (CAI). The cultures were either maintained for 8 hrs or 24 hrs. Controls were used, for example, Tarceva®. (EGFR inhibitor) at 1 μM and BEZ235 (PI3K inhibitor) at 1 μM for 24 hrs only. Once in culture hairs were collected at the specified periods for mRNA isolation or protein analysis to ensure quality control. Small amounts of RNA (about up to 500 ng) are extracted from the bulbs at the end of the anagen hairs. Representative cDNA was prepared from the RNA and gene expression levels determined by microarray analysis. Biotin labeling, fragmentation and hybridization to 048 Affymetrix U133 plus 2.0 array was done. Bioinformatic analysis was done to identify CTO induced gene expression changes.

[3] = tested on: ex vivo cultured human anagen hairs; assay: Plucked hair biomarker platform: global transcriptional response by microarray (probe list, Table 1); settings: for transcriptional response (differential probes): CTO equivalent to 2, 5, 10 μM CAI, 8 hr and 24 hr, BEZ235 and Tarceva 1 μM, 24 hr
[4] = tested on: non-voltage dependent calcium signaling genes; assay: Plucked hair assay, non-voltage dependent calcium signaling Signature Score; assay type: cell-based, human; settings: across CTO treatment; literature determined regulation and ANOVA determined set
Experimental: as §2, with “changes. […]” for “changes.”

WNT β-catenin pathway = assay: Plucked hair assay, WNT β-catenin Signature Score; assay type: cell-based, human; settings: 24 hrs exposure to CTO
Experimental: as §1

EGFR pathway = assay: Plucked hair assay, EGFR Signature Score; assay type: cell-based, human; settings: all doses of CTO and time points; Tarceva 1 μM 24 hr
Experimental: as §1

P53 pathway = assay: Plucked hair assay, P53 Signature Score; assay type: cell-based, human; settings: all doses of CTO, 8 hr and 24 hr
Experimental: as §1

CAI Ex vivo pathway = assay: Plucked hair assay, CAI Ex vivo Signature Score; assay type: cell-based, human; settings: different doses of CTO, 8 hr and 24 hr; tissue specific direction of change
Experimental: as §2, with “changes. […]” for “changes.”

TGF-β signaling = assay: Plucked hair assay, TGF-β signaling; assay type: cell-based, human
Experimental: as §2

HDAC pathway = assay: Plucked hair assay, HDAC Signature Score; assay type: cell-based, human; settings: different doses of CTO, 8 hr and 24 hr
Experimental: as §1

HSP90 pathway = assay: Plucked hair assay, HSP90 Signature Score; assay type: cell-based, human; settings: different doses of CTO, 8 hr and 24 hr; dose dependent
Experimental: as §1

[5] = tested on: Growth Factor Signature (GFS) pathway; assay: Plucked hair assay, Growth Factor Signature Score; assay type: cell-based, human; settings: different doses of CTO, 8 hr and 24 hr; most obvious at 8 hrs
Experimental: as §1

MEK pathway = assay: Plucked hair assay, MEK Signature Score; assay type: cell-based, human; settings: all CTO treatments at 8 hrs and 24 hrs
Experimental: as §1

CAI IPA pathway = assay: Plucked hair assay, CAI IPA Signature Score; assay type: cell-based, human; settings: different doses of CTO, 8 hr and 24 hr; except at 10 μM
Experimental: as §2, with “changes. […]” for “changes.”

RAS pathway = assay: Plucked hair assay, RAS pathway Signature Score; assay type: cell-based, human; settings: different doses of CTO, 8 hr and 24 hr; most obvious at 8 hrs
Experimental: as §1

NOTCH pathway = assay: Plucked hair assay, NOTCH Signature Score; assay type: cell-based, human; settings: different doses of CTO, 8 hr and 24 hr
Experimental: as §1

[6] = tested on: cancer patients with different tumor types; assay type: in vivo; settings: CTO given alone
Description: Thus enormous efforts are directed to the development of molecular pharmacodynamics biomarkers of signaling outputs of CTO to design combinatorial regimens against molecular targets in different types of cancers. Current methods for assessing pathway activation in tumors involve the measurement of the drug targets, known oncogenes or known tumor suppressors. However, one pathway can be activated at multiple points so it is not feasible to assess pathway activation by evaluating just known cancer associated genes.

[7] = tested on: Canonical Calcium signaling; assay: Plucked hair assay, Canonical Calcium signaling Signature Score (KEGG and IPA); assay type: cell-based, human; settings: KEGG Calcium Signaling Pathway and IPA predicted regulation
Experimental: Canonical calcium signaling was analyzed using the KEGG Calcium Signaling Pathway and IPA to predict regulation of canonical calcium signaling. […] Using ANOVA to filter for informative genes (FDR<0.05 & 1.5) it was noted that suppression of canonical calcium genes occurred across CTO treatment, however this only represented 7/68 canonical pathway genes.
as §2, with “changes. […]” for “changes.”

Dystonin = assay: Plucked hair assay, Dystonin expression; assay type: cell-based, human
Experimental: as §2

Question: What does the source list for `Cn1c(=O)n(-c2ccc(C(C)(C)C#N)cc2)c2c3cc(-c4cnc5ccccc5c4)ccc3ncc21` [BEZ235, reference compound]?
Answer: PI3K signature (PI3K pathway): Strong suppression; EGR1 regulation [1]: suppressed; PI3K/mTOR signature (PI3K/mTOR pathway): Strong suppression

Question: What does the source list for `C#Cc1cccc(Nc2ncnc3cc(OCCOC)c(OCCOC)cc23)c1` [Tarceva®, erlotinib, reference compound]?
Answer: CEACAM1 regulation [2]: down regulated; EGR1 regulation [1]: suppressed; transcriptional response (differential probes) [3]: less differential probes than CTO or BEZ235

Question: How did the “non-voltage dependent calcium genes signature” value [4] turn out when `NC(=O)c1nnn(Cc2cc(Cl)c(C(=O)c3ccc(Cl)cc3)c(Cl)c2)c1N.O=C(O)c1cc(=O)[nH]c(=O)[nH]1` [CTO, carboxyamidotriazole orotate] was run?
Answer: strongly suppressed; also recorded: strong suppression

Question: What about the “WNT β-catenin signature” value (WNT β-catenin pathway) of the same compound?
Answer: modes suppression; also recorded: inhibitory at 24 hr

Question: And the EGFR signature (EGFR pathway)?
Answer: strongly suppressed; also recorded: very strong suppression; also recorded: stronger than that in Tarceva® at all doses of CTO and time points

Question: And the P53 signature (P53 pathway)?
Answer: stabilized; also recorded: induction; also recorded: induced

Question: What about the “IPA CAI list, ex vivo 14 gene set” value (CAI Ex vivo pathway) of the same compound?
Answer: strong dose dependent suppression

Question: And the TGF-β signaling (TGF-β signaling)?
Answer: inhibited

Question: What about the CEACAM1 regulation [2] of the same compound?
Answer: down regulated

Question: What about the HDAC signature (HDAC pathway) of the same compound?
Answer: strongly suppressed; also recorded: weak suppression

Question: What about the HSP90 signature (HSP90 pathway) of the same compound?
Answer: strong suppression

Question: What about the “Growth Factor signature (GFS)” value [5] of the same compound?
Answer: modest down regulation

Question: What about the EGR1 up regulation ([1]; varying doses of CTO at 8 hr and 24 hrs) of the same compound?
Answer: 6 fold

Question: And the MEKi signature (MEK pathway)?
Answer: strongly suppressed; also recorded: strong inhibition

Question: And the “CAI signature (IPA, 29 genes)” value (CAI IPA pathway)?
Answer: some suppression

Question: And the RAS signature (RAS pathway)?
Answer: modest down regulation

Question: And the Notch signature (NOTCH pathway)?
Answer: no suppression; also recorded: no activity

Question: What about the tumor response ([6]; cancer patients with different genomic mutations) of the same compound?
Answer: stable disease or partial response showing tumor shrinkage

Question: What about the safety and tolerability ([6]; cancer patients, maximum tolerated dose not determined) of the same compound?
Answer: safe and tolerable

Question: What about the “canonical calcium signaling pathway signature” value [7] of the same compound?
Answer: No significant suppression

Question: What about the “net result probes overlapping between the 8 hr and 24 hr lists” value ([3]; 442 unique annotated genes) of the same compound?
Answer: 558

Question: And the probes observed ([3]; 8 hours)?
Answer: 1440

Question: What about the probes observed ([3]; 24 hrs) of the same compound?
Answer: 2961

Question: What about the “transcriptional response (differential probes)” value [3] of the same compound?
Answer: differential probes increased in a dose related manner; also recorded: greatest effect transcriptionally

Question: And the “fold range of the overlapping probes” value ([3]; high dose CTO/24 hr)?
Answer: −75 to +33 fold

Question: And the Dystonin down regulation (Dystonin)?
Answer: 60 fold
